In PubChem BioAssay AID1963826 (Molecular Pharmacology Branch, DTP, NCI, 2024):

System: 926638-142-R-J1-PDC complex spheroid viability
Test: Anticancer human tumor 926638-142-R-J1-PDC patient-derived endometrial carcinoma cell line growth inhibition [POLQ]
Details: for IC50: curve of first compound; for viability, T/C: stronger effect = lower value
Summary of the method: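 Three-cell-type spheroids modelling solid tumor plus stroma served as the readout system; POL inhibitors were tested individually and in combination, concentration ranges set by clinical Cmax where known.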

[1] = second compound 0.0316 µM, first compound 0.0316 µM
[2] = second compound 0.0316 µM, first compound 0.1 µM
[3] = second compound 0.0316 µM, first compound 0.316 µM
[4] = second compound 0.0316 µM, first compound 1 µM
[5] = second compound 0.0316 µM, first compound 3.16 µM
[6] = second compound 0.0316 µM, first compound 10 µM
[7] = second compound 0.1 µM, first compound 0.0316 µM
[8] = second compound 0.1 µM, first compound 0.1 µM
[9] = second compound 0.1 µM, first compound 0.316 µM
[10] = second compound 0.1 µM, first compound 1 µM
[11] = second compound 0.1 µM, first compound 3.16 µM
[12] = second compound 0.1 µM, first compound 10 µM
[13] = second compound 0.316 µM, first compound 0.0316 µM
[14] = second compound 0.316 µM, first compound 0.1 µM
[15] = second compound 0.316 µM, first compound 0.316 µM
[16] = second compound 0.316 µM, first compound 1 µM
[17] = second compound 0.316 µM, first compound 3.16 µM
[18] = second compound 0.316 µM, first compound 10 µM
[19] = second compound 1 µM, first compound 0.0316 µM
[20] = second compound 1 µM, first compound 0.1 µM
[21] = second compound 1 µM, first compound 0.316 µM
[22] = second compound 1 µM, first compound 1 µM
[23] = second compound 1 µM, first compound 3.16 µM
[24] = second compound 1 µM, first compound 10 µM
[25] = second compound 3.16 µM, first compound 0.0316 µM
[26] = second compound 3.16 µM, first compound 0.1 µM
[27] = second compound 3.16 µM, first compound 0.316 µM
[28] = second compound 3.16 µM, first compound 1 µM
[29] = second compound 3.16 µM, first compound 3.16 µM
[30] = second compound 3.16 µM, first compound 10 µM
[31] = second compound 10 µM, first compound 0.0316 µM
[32] = second compound 10 µM, first compound 0.1 µM
[33] = second compound 10 µM, first compound 0.316 µM
[34] = second compound 10 µM, first compound 1 µM
[35] = second compound 10 µM, first compound 3.16 µM
[36] = second compound 10 µM, first compound 10 µM
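Also: spheroids exposed to drugs for one week before readout.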
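For viability, T/C in this document: percent viability relative to DMSO vehicle control wells set as 100%.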

## CCCS(=O)(=O)Nc1ccc(F)c(C(=O)c2c[nH]c3ncc(-c4ccc(Cl)cc4)cc23)c1F + COC1C(OC(N)=O)C(O)C(Oc2ccc3c(O)c(NC(=O)c4ccc(O)c(CC=C(C)C)c4)c(=O)oc3c2C)OC1(C)C
Second compound 0.0316 µM
  IC50: 8720 nM
Second compound 0.1 µM
  IC50: 9760 nM
Second compound 0.316 µM
  IC50: 9970 nM
Second compound 1 µM
  IC50: > 10000 nM
Second compound 3.16 µM
  IC50: 9780 nM
Second compound 10 µM
  IC50: 9920 nM
[1]
  viability, T/C: 112%
[2]
  viability, T/C: 89.5%
[3]
  viability, T/C: 93.1%
[4]
  viability, T/C: 122%
[5]
  viability, T/C: 86.4%
[6]
  viability, T/C: 45%
[7]
  viability, T/C: 108%
[8]
  viability, T/C: 105%
[9]
  viability, T/C: 83.3%
[10]
  viability, T/C: 112%
[11]
  viability, T/C: 91.3%
[12]
  viability, T/C: 49.1%
[13]
  viability, T/C: 110%
[14]
  viability, T/C: 114%
[15]
  viability, T/C: 118%
[16]
  viability, T/C: 116%
[17]
  viability, T/C: 105%
[18]
  viability, T/C: 49.6%
[19]
  viability, T/C: 84%
[20]
  viability, T/C: 95.7%
[21]
  viability, T/C: 104%
[22]
  viability, T/C: 101%
[23]
  viability, T/C: 98.8%
[24]
  viability, T/C: 52.2%
[25]
  viability, T/C: 89.7%
[26]
  viability, T/C: 92.3%
[27]
  viability, T/C: 89.2%
[28]
  viability, T/C: 95.2%
[29]
  viability, T/C: 95.5%
[30]
  viability, T/C: 49.2%
[31]
  viability, T/C: 81.9%
[32]
  viability, T/C: 93.7%
[33]
  viability, T/C: 90%
[34]
  viability, T/C: 84%
[35]
  viability, T/C: 83.7%
[36]
  viability, T/C: 49.5%

## CNCc1ccc(-c2[nH]c3cc(F)cc4c3c2CCNC4=O)cc1 + COC1C(OC(N)=O)C(O)C(Oc2ccc3c(O)c(NC(=O)c4ccc(O)c(CC=C(C)C)c4)c(=O)oc3c2C)OC1(C)C
Second compound 0.0316 µM
  IC50: > 10000 nM
Second compound 0.1 µM
  IC50: > 10000 nM
Second compound 0.316 µM
  IC50: > 10000 nM
Second compound 1 µM
  IC50: > 10000 nM
Second compound 3.16 µM
  IC50: > 10000 nM
Second compound 10 µM
  IC50: > 10000 nM
[1]
  viability, T/C: 92%
[2]
  viability, T/C: 82.2%
[3]
  viability, T/C: 96%
[4]
  viability, T/C: 81%
[5]
  viability, T/C: 87.7%
[6]
  viability, T/C: 76.7%
[7]
  viability, T/C: 78.9%
[8]
  viability, T/C: 99.9%
[9]
  viability, T/C: 77.2%
[10]
  viability, T/C: 89.2%
[11]
  viability, T/C: 80.1%
[12]
  viability, T/C: 81.2%
[13]
  viability, T/C: 90.5%
[14]
  viability, T/C: 81.1%
[15]
  viability, T/C: 84.9%
[16]
  viability, T/C: 90.5%
[17]
  viability, T/C: 101%
[18]
  viability, T/C: 84.6%
[19]
  viability, T/C: 77.3%
[20]
  viability, T/C: 73.9%
[21]
  viability, T/C: 73.8%
[22]
  viability, T/C: 89.9%
[23]
  viability, T/C: 94.8%
[24]
  viability, T/C: 69%
[25]
  viability, T/C: 82.3%
[26]
  viability, T/C: 93.9%
[27]
  viability, T/C: 90.7%
[28]
  viability, T/C: 71.2%
[29]
  viability, T/C: 88.2%
[30]
  viability, T/C: 85.2%
[31]
  viability, T/C: 89.8%
[32]
  viability, T/C: 79.9%
[33]
  viability, T/C: 83.8%
[34]
  viability, T/C: 70.5%
[35]
  viability, T/C: 84.4%
[36]
  viability, T/C: 83%

## COc1ccc([C@@H](O)c2cc(-c3ncnc4cc(N5CCOCC5)ccc34)c(F)cc2Cl)nn1 + COC1C(OC(N)=O)C(O)C(Oc2ccc3c(O)c(NC(=O)c4ccc(O)c(CC=C(C)C)c4)c(=O)oc3c2C)OC1(C)C
Second compound 0.0316 µM
  IC50: 434 nM
Second compound 0.1 µM
  IC50: 454 nM
Second compound 0.316 µM
  IC50: 535 nM
Second compound 1 µM
  IC50: 443 nM
Second compound 3.16 µM
  IC50: 634 nM
Second compound 10 µM
  IC50: 468 nM
[1]
  viability, T/C: 106%
[2]
  viability, T/C: 77.5%
[3]
  viability, T/C: 64%
[4]
  viability, T/C: 28.1%
[5]
  viability, T/C: 16.5%
[6]
  viability, T/C: 8.85%
[7]
  viability, T/C: 109%
[8]
  viability, T/C: 89%
[9]
  viability, T/C: 64%
[10]
  viability, T/C: 24.4%
[11]
  viability, T/C: 12.6%
[12]
  viability, T/C: 7.89%
[13]
  viability, T/C: 106%
[14]
  viability, T/C: 92.4%
[15]
  viability, T/C: 64.9%
[16]
  viability, T/C: 31.9%
[17]
  viability, T/C: 17.5%
[18]
  viability, T/C: 9.34%
[19]
  viability, T/C: 84.7%
[20]
  viability, T/C: 82.3%
[21]
  viability, T/C: 57.7%
[22]
  viability, T/C: 29.1%
[23]
  viability, T/C: 10.7%
[24]
  viability, T/C: 9.06%
[25]
  viability, T/C: 96.4%
[26]
  viability, T/C: 102%
[27]
  viability, T/C: 80.4%
[28]
  viability, T/C: 29.8%
[29]
  viability, T/C: 11.9%
[30]
  viability, T/C: 7.51%
[31]
  viability, T/C: 91.6%
[32]
  viability, T/C: 88.9%
[33]
  viability, T/C: 57.8%
[34]
  viability, T/C: 30.9%
[35]
  viability, T/C: 14%
[36]
  viability, T/C: 7.25%

## COc1cccc(OCCCN)c1-c1cc(Nc2cnc(C#N)cn2)n[nH]1 + COC1C(OC(N)=O)C(O)C(Oc2ccc3c(O)c(NC(=O)c4ccc(O)c(CC=C(C)C)c4)c(=O)oc3c2C)OC1(C)C
Second compound 0.0316 µM
  IC50: 146 nM
Second compound 0.1 µM
  IC50: 122 nM
Second compound 0.316 µM
  IC50: 113 nM
Second compound 1 µM
  IC50: 107 nM
Second compound 3.16 µM
  IC50: 70.5 nM
Second compound 10 µM
  IC50: 77.7 nM
Second compound 0.0316 µM, first compound 0.00316 µM
  viability, T/C: 104%
Second compound 0.0316 µM, first compound 0.01 µM
  viability, T/C: 96.4%
[1]
  viability, T/C: 65.9%
[2]
  viability, T/C: 61.8%
[3]
  viability, T/C: 36%
[4]
  viability, T/C: 24.8%
Second compound 0.1 µM, first compound 0.00316 µM
  viability, T/C: 111%
Second compound 0.1 µM, first compound 0.01 µM
  viability, T/C: 79%
[7]
  viability, T/C: 68.3%
[8]
  viability, T/C: 56.6%
[9]
  viability, T/C: 39%
[10]
  viability, T/C: 31.5%
Second compound 0.316 µM, first compound 0.00316 µM
  viability, T/C: 94.2%
Second compound 0.316 µM, first compound 0.01 µM
  viability, T/C: 74.5%
[13]
  viability, T/C: 62.7%
[14]
  viability, T/C: 51.4%
[15]
  viability, T/C: 42.2%
[16]
  viability, T/C: 35.2%
Second compound 1 µM, first compound 0.00316 µM
  viability, T/C: 87.7%
Second compound 1 µM, first compound 0.01 µM
  viability, T/C: 77.9%
[19]
  viability, T/C: 47.3%
[20]
  viability, T/C: 56.4%
[21]
  viability, T/C: 49.1%
[22]
  viability, T/C: 29.6%
Second compound 3.16 µM, first compound 0.00316 µM
  viability, T/C: 92.6%
Second compound 3.16 µM, first compound 0.01 µM
  viability, T/C: 89.3%
[25]
  viability, T/C: 60.4%
[26]
  viability, T/C: 46.2%
[27]
  viability, T/C: 46.5%
[28]
  viability, T/C: 31.7%
Second compound 10 µM, first compound 0.00316 µM
  viability, T/C: 81.2%
Second compound 10 µM, first compound 0.01 µM
  viability, T/C: 80.8%
[31]
  viability, T/C: 65%
[32]
  viability, T/C: 44.5%
[33]
  viability, T/C: 36.9%
[34]
  viability, T/C: 27.9%
